Reference: US10519154B2, “7-substituted 1-pyridyl-naphthyridine-3-carboxylic acid amides and use thereof” (Bayer Pharma Aktiengesellschaft, priority 2016, dated 2019)

Target: T1, human M2 receptor (Homo sapiens, UniProt P08172)
T1 sequence (P08172 1-466): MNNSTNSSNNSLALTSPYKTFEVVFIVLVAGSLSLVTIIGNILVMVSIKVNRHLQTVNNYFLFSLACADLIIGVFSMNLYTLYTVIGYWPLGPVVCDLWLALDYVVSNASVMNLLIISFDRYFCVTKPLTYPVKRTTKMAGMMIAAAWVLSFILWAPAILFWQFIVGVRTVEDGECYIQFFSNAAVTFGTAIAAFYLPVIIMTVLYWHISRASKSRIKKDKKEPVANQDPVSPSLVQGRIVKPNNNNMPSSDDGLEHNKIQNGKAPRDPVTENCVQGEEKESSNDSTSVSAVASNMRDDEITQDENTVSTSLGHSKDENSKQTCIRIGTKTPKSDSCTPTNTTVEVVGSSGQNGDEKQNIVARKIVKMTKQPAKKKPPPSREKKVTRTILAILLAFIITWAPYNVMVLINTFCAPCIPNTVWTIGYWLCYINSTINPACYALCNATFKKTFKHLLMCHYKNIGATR
Assay: Functional M2-GIRK1/4 activation test: allosteric potency (EC50) and efficiency
Settings: for EC50: Receptor activity EC50, CHO-DUKX-M2-GIRK cells, acetylcholine at EC20, in some cases mean of two or more determinations; for Emax: read-out: Efficiency, boosting of the acetylcholine effect at EC20 acetylcholine concentration; for Emax / Efficiency: CHO-DUKX-M2-GIRK cells; for Efficiency: boosting of the acetylcholine effect at EC20 acetylcholine concentration

SMILES | EC50 [nM] | Emax [%] | Efficiency [%]
O=C(N[C@H](C1CC1)C(F)(F)F)c1cn(-c2ncccc2Cl)c2nc(N3CC4CC4(O)C3)ccc2c1=O (mixture of isomers) [Example 54, 1-(3-Chloropyridin-2-yl)-N-[(1R)-1-cyclopropyl-2,2,2-trifluoroethyl]-7-[1-hydroxy-3-azabicyclo[3.1.0]hex-3-yl]-4-oxo-1,4-dihydro-1,8-naphthyridine-3-carboxamide] | 350 | 94.7 | 
O=C(NC(C(F)(F)F)C(F)(F)F)c1cn(-c2ncc(F)cc2F)c2nc(N3CC4CC4(O)C3)ccc2c1=O (single isomer, unassigned) [Example 59, 1-(3,5-Difluoropyridin-2-yl)-N-(1,1,1,3,3,3-hexafluoropropan-2-yl)-7-[1-hydroxy-3-azabicyclo[3.1.0]hex-3-yl]-4-oxo-1,4-dihydro-1,8-naphthyridine-3-carboxamide] | 23 |  | 99.00
O=C(N[C@H](C1CC1)C(F)(F)F)c1cn(-c2ncc(F)cc2F)c2nc(N3CC4CC4(O)C3)ccc2c1=O (mixture of isomers) [Example 37, N-[(1R)-1-Cyclopropyl-2,2,2-trifluoroethyl]-1-(3,5-difluoropyridin-2-yl)-7-[1-hydroxy-3-azabicyclo[3.1.0]hex-3-yl]-4-oxo-1,4-dihydro-1,8-naphthyridine-3-carboxamide] | 21 | 99 | 
CCC(NC(=O)c1cn(-c2ncc(F)cc2F)c2nc(N3C[C@@H](O)CC3=O)ccc2c1=O)C(F)(F)C(F)(F)F (mixture of isomers) [Example 92, 1-(3,5-Difluoropyridin-2-yl)-7-[(4S)-4-hydroxy-2-oxopyrrolidin-1-yl]-4-oxo-N-[1,1,1,2,2-pentafluoropentan-3-yl]-1,4-dihydro-1,8-naphthyridine-3-carboxamide] | 17 | 100 | 
CC1C(=O)N(c2ccc3c(=O)c(C(=O)N[C@@H](C4CC4)C(F)(F)F)cn(-c4ncc(F)cc4F)c3n2)CC1O (single isomer, unassigned) [Example 106] | 165 |  | 91.50
O=C(NC(c1cccc(F)c1)C(F)(F)F)c1cn(-c2ncccc2Cl)c2nc(N3C[C@@H](O)CC3=O)ccc2c1=O (stereo partly drawn) [Example 23, 1-(3-Chloropyridin-2-yl)-7-[(4S)-4-hydroxy-2-oxopyrrolidin-1-yl]-4-oxo-N-[2,2,2-trifluoro-1-(3-fluorophenyl)ethyl]-1,4-dihydro-1,8-naphthyridine-3-carboxamide] | 145 | 92 | 
O=C(NC(C(F)(F)F)C(F)(F)F)c1cn(-c2ncc(F)cc2F)c2nc(N3CC4CC4(O)C3)ccc2c1=O (single isomer, unassigned) [Example 58, 1-(3,5-Difluoropyridin-2-yl)-N-(1,1,1,3,3,3-hexafluoropropan-2-yl)-7-[1-hydroxy-3-azabicyclo[3.1.0]hex-3-yl]-4-oxo-1,4-dihydro-1,8-naphthyridine-3-carboxamide] | 11 | 96 | 
O=C(N[C@H](C1CC1)C(F)(F)F)c1cn(-c2ncccc2F)c2nc(N3C[C@@H](O)CC3=O)ccc2c1=O [Example 139, N-[(1R)-1-Cyclopropyl-2,2,2-trifluoroethyl]-1-(3-fluoropyridin-2-yl)-7-[(4S)-4-hydroxy-2-oxopyrrolidin-1-yl]-4-oxo-1,4-dihydro-1,8-naphthyridine-3-carboxamide] | 230 | 100 | 
CC[C@@H](NC(=O)c1cn(-c2ncc(F)cc2F)c2nc(N3CCCCC3=O)ccc2c1=O)C(F)(F)F [Example 34, 1-(3,5-Difluoropyridin-2-yl)-4-oxo-7-(2-oxopiperidin-1-yl)-N-[(2R)-1,1,1-trifluorobutan-2-yl]-1,4-dihydro-1,8-naphthyridine-3-carboxamide] | 880 | 82 | 
CC[C@@H](NC(=O)c1cn(-c2ncc(F)cc2F)c2nc(N3CCCC(O)C3)ccc2c1=O)C(F)(F)F (mixture of isomers) [Example 117, 1-(3,5-Difluoropyridin-2-yl)-7-[3-hydroxypiperidin-1-yl]-4-oxo-N-[(2R)-1,1,1-trifluorobutan-2-yl]-1,4-dihydro-1,8-naphthyridine-3-carboxamide] | 400 | 94.5 | 

Further compounds by falling EC50, results first:

EC50 [nM] | Emax [%] | Efficiency [%] | SMILES
2850 | 84.5 |  | O=C(NC1CCC1)c1cn(-c2ncc(F)cc2F)c2nc(N3C[C@@H](O)[C@H](O)C3)ccc2c1=O [Example 168, N-Cyclobutyl-1-(3,5-difluoropyridin-2-yl)-7-[(3R,4R)-3,4-dihydroxypyrrolidin-1-yl]-4-oxo-1,4-dihydro-1,8-naphthyridine-3-carboxamide]
2250 | 86 |  | CC1(NC(=O)c2cn(-c3ncc(F)cc3F)c3nc(N4C[C@@H](O)[C@H](O)C4)ccc3c2=O)CC(F)(F)C1 [Example 170, N-(3,3-Difluoro-1-methylcyclobutyl)-1-(3,5-difluoropyridin-2-yl)-7-[(3R,4R)-3,4-dihydroxypyrrolidin-1-yl]-4-oxo-1,4-dihydro-1,8-naphthyridine-3-carboxamide]
1060 | 89 |  | O=C(NC12CC(F)(C1)C2)c1cn(-c2ncc(F)cc2F)c2nc(N3C[C@@H](O)CC3=O)ccc2c1=O [Example 102, 1-(3,5-Difluoropyridin-2-yl)-N-(3-fluorobicyclo[1.1.1]pent-1-yl)-7-[(4S)-4-hydroxy-2-oxopyrrolidin-1-yl]-4-oxo-1,4-dihydro-1,8-naphthyridine-3-carboxamide]
295 | 100 |  | CC[C@@H](NC(=O)c1cn(-c2ncc(F)cc2F)c2nc(N3C[C@@H](O)[C@H](O)C3)ccc2c1=O)C(F)(F)F [Example 42, 1-(3,5-Difluoropyridin-2-yl)-7-[(3R,4R)-3,4-dihydroxypyrrolidin-1-yl]-4-oxo-N-[(2R)-1,1,1-trifluorobutan-2-yl]-1,4-dihydro-1,8-naphthyridine-3-carboxamide]
195 | 96 |  | O=C(Nc1c(Cl)cccc1Cl)c1cn(-c2ncc(F)cc2F)c2nc(N3C[C@H](O)[C@@H](O)C3)ccc2c1=O [Example 68, N-(2,6-Dichlorophenyl)-1-(3,5-difluoropyridin-2-yl)-7-[(3S,4S)-3,4-dihydroxypyrrolidin-1-yl]-4-oxo-1,4-dihydro-1,8-naphthyridine-3-carboxamide]
115 | 90.5 |  | O=C(NC(C(F)(F)F)C(F)(F)F)c1cn(-c2ncc(F)cc2F)c2nc(N3CCNC3=O)ccc2c1=O [Example 158, 1-(3,5-Difluoropyridin-2-yl)-N-(1,1,1,3,3,3-hexafluoropropan-2-yl)-4-oxo-7-(2-oxoimidazolidin-1-yl)-1,4-dihydro-1,8-naphthyridine-3-carboxamide]
110 |  | 99.00 | O=C(N[C@H](C1CC1)C(F)(F)F)c1cn(-c2ncccc2F)c2nc(N3CC4C[C@@]4(O)C3)ccc2c1=O (single isomer, unassigned) [Example 137]
95 | 100 |  | O=C(NC(C(F)(F)F)C(F)(F)F)c1cn(-c2ncc(F)cc2F)c2nc(N3CCC(O)(CO)CC3)ccc2c1=O [Example 179]
83 | 100 |  | CC(C)(NC(=O)c1cn(-c2ncc(F)cc2F)c2nc(N3CCC(O)(CO)CC3)ccc2c1=O)C(F)(F)C(F)(F)F [Example 174, 1-(3,5-Difluoropyridin-2-yl)-7-[4-hydroxy-4-(hydroxymethyl)piperidin-1-yl]-4-oxo-N-(3,3,4,4,4-pentafluoro-2-methylbutan-2-yl)-1,4-dihydro-1,8-naphthyridine-3-carboxamide]
66 | 100 |  | O=C(NC(c1ccccc1Cl)C(F)(F)F)c1cn(-c2ncc(F)cc2F)c2nc(N3CCNC3=O)ccc2c1=O (single isomer, unassigned) [Example 148, N-[1-(2-Chlorophenyl)-2,2,2-trifluoroethyl]-1-(3,5-difluoropyridin-2-yl)-4-oxo-7-(2-oxoimidazolidin-1-yl)-1,4-dihydro-1,8-naphthyridine-3-carboxamide]
60 | 98.5 |  | CC(NC(=O)c1cn(-c2ncc(F)cc2F)c2nc(N3CCC[C@@H]3CO)ccc2c1=O)C(F)(F)C(F)(F)F (single isomer, unassigned) [Example 175]
54 | 100 |  | O=C(NC1(C(F)(F)F)CCCC1)c1cn(-c2ncc(F)cc2F)c2nc(N3C[C@@H](O)CC3=O)ccc2c1=O [Example 79, 1-(3,5-Difluoropyridin-2-yl)-7-[(4S)-4-hydroxy-2-oxopyrrolidin-1-yl]-4-oxo-N-[1-(trifluoromethyl)cyclopentyl]-1,4-dihydro-1,8-naphthyridine-3-carboxamide]
32 |  | 100.00 | CCC(NC(=O)c1cn(-c2ncc(F)cc2F)c2nc(N3C[C@@H](O)CC3=O)ccc2c1=O)C(F)(F)C(F)(F)F (single isomer, unassigned) [Example 94]
17 | 100 |  | O=C(NC(c1ccccc1Cl)C(F)(F)F)c1cn(-c2ncc(F)cc2F)c2nc(N3C[C@@H](O)[C@H](O)C3)ccc2c1=O (mixture of isomers) [Example 83, N-[1-(2-Chlorophenyl)-2,2,2-trifluoroethyl]-1-(3,5-difluoropyridin-2-yl)-7-[(3R,4R)-3,4-dihydroxypyrrolidin-1-yl]-4-oxo-1,4-dihydro-1,8-naphthyridine-3-carboxamide]
